# Source: ChEMBL document CHEMBL1140490, “Design and synthesis via click chemistry of 8,9-anhydroerythromycin A 6,9-hemiketal analogues with anti-MRSA and -VRE activity” (2007)
# Columns and labels:
# Staphylococcus aureus [1] = test: Antimicrobial activity against methicillin-resistant Staphylococcus aureus N315 IR94-HR-1 by serial dilution method; assay type: functional
# Staphylococcus aureus [2] = test: Antimicrobial activity against methicillin-resistant Staphylococcus aureus N315 IR94 by serial dilution method; assay type: functional
# Staphylococcus aureus [3] = test: Antimicrobial activity against Staphylococcus aureus ISP217 by serial dilution method; assay type: functional
# Staphylococcus aureus [4] = test: (§1) Antimicrobial activity against Staphylococcus aureus 8325 by serial dilution method; assay type: functional
# Enterococcus faecium = test: Antimicrobial activity against vancomycin-resistant Enterococcus faecium NCTC-12203 by serial dilution method
# Staphylococcus aureus [5] = test: Antimicrobial activity against Staphylococcus aureus Smith by serial dilution method; assay type: functional
# Staphylococcus aureus [6] = test: Antimicrobial activity against Staphylococcus aureus FDA209P by serial dilution method; assay type: functional
# Escherichia coli = test: Antimicrobial activity against Escherichia coli NIHJ JC-2 by serial dilution method; assay type: functional
# Staphylococcus aureus [7] = test: as §1; assay type: functional; remark: listed apart in the source
# Staphylococcus aureus [8] = test: Antimicrobial activity against Staphylococcus aureus ISP447 by serial dilution method; assay type: functional
# Enterococcus faecalis = test: Antimicrobial activity against vancomycin-resistant Enterococcus faecalis NCTC-12201 by serial dilution method; assay type: functional
# Staphylococcus aureus [9] = test: Antimicrobial activity against methicillin-resistant Staphylococcus aureus 92-1191 by serial dilution method; assay type: functional
# Staphylococcus aureus [10] = test: Antimicrobial activity against methicillin-resistant Staphylococcus aureus 70 by serial dilution method; assay type: functional
SMILES,MIC (Staphylococcus aureus [1]) [µg/mL],MIC (Staphylococcus aureus [2]) [µg/mL],MIC (Staphylococcus aureus [3]) [µg/mL],MIC (Staphylococcus aureus [4]) [µg/mL],MIC (Enterococcus faecium) [µg/mL],MIC (Staphylococcus aureus [5]) [µg/mL],MIC (Staphylococcus aureus [6]) [µg/mL],MIC (Escherichia coli) [µg/mL],MIC (Staphylococcus aureus [7]) [µg/mL],MIC (Staphylococcus aureus [8]) [µg/mL],MIC (Enterococcus faecalis) [µg/mL],MIC (Staphylococcus aureus [9]) [µg/mL],MIC (Staphylococcus aureus [10]) [µg/mL]
CC[C@H]1OC(=O)[C@H](C)[C@@H](OCc2cn(-c3cccnc3)nn2)[C@H](C)[C@@H](O[C@@H]2O[C@H](C)C[C@H](N(C)C)[C@H]2O)[C@@]2(C)CC(C)=C(O2)[C@H](C)[C@@H](OC(=O)C(C)C)[C@]1(C)OC(=O)C(C)C,16,16,16,16,16,64,32,> 128,128,64,32,32,16
CC[C@H]1OC(=O)[C@H](C)[C@@H](OCc2cn(CC(=O)Nc3ccccn3)nn2)[C@H](C)[C@@H](O[C@@H]2O[C@H](C)C[C@H](N(C)C)[C@H]2O)[C@@]2(C)CC(C)=C(O2)[C@H](C)[C@@H](OC(=O)C(C)C)[C@]1(C)OC(=O)C(C)C,16,16,16,16,32,32,32,> 128,32,32,> 128,32,32
CC[C@H]1OC(=O)[C@H](C)[C@@H](OCc2cn(C34CC5CC(CC(C5)C3)C4)nn2)[C@H](C)[C@@H](O[C@@H]2O[C@H](C)C[C@H](N(C)C)[C@H]2O)[C@@]2(C)CC(C)=C(O2)[C@H](C)[C@@H](OC(=O)C(C)C)[C@]1(C)OC(=O)C(C)C,8,8,8,8,8,16,8,> 128,16,16,8,8,8
CC[C@H]1OC(=O)[C@H](C)[C@@H](OCc2cn(CSc3ccccc3)nn2)[C@H](C)[C@@H](O[C@@H]2O[C@H](C)C[C@H](N(C)C)[C@H]2O)[C@@]2(C)CC(C)=C(O2)[C@H](C)[C@@H](OC(=O)C(C)C)[C@]1(C)OC(=O)C(C)C,8,8,16,16,16,32,16,> 128,16,16,16,16,16
CC[C@H]1OC(=O)[C@H](C)[C@@H](OCc2cn(CC(=O)OCc3ccccc3)nn2)[C@H](C)[C@@H](O[C@@H]2O[C@H](C)C[C@H](N(C)C)[C@H]2O)[C@@]2(C)CC(C)=C(O2)[C@H](C)[C@@H](OC(=O)C(C)C)[C@]1(C)OC(=O)C(C)C,16,16,16,16,32,128,32,> 128,64,64,32,32,16
C#CCO[C@H]1[C@H](C)[C@@H](O[C@@H]2O[C@H](C)C[C@H](N(C)C)[C@H]2O)[C@@]2(C)CC(C)=C(O2)[C@H](C)[C@@H](OC(=O)C(C)C)[C@](C)(OC(=O)C(C)C)[C@@H](CC)OC(=O)[C@@H]1C,16,16,16,16,16,32,32,> 128,32,32,16,16,16
CC[C@H]1OC(=O)[C@H](C)[C@@H](O[C@H]2C[C@@](C)(OC)[C@@H](O)[C@H](C)O2)[C@H](C)[C@@H](O[C@@H]2O[C@H](C)C[C@H](N(C)C)[C@H]2O)[C@@]2(C)CC(C)=C(O2)[C@H](C)[C@@H](OC(=O)C(C)C)[C@]1(C)OC(=O)C(C)C,16,16,16,16,32,16,16,> 128,32,32,64,32,32
CC[C@H]1OC(=O)[C@H](C)[C@@H](O[C@H]2C[C@@](C)(OC)[C@@H](OC=O)[C@H](C)O2)[C@H](C)[C@@H](O[C@@H]2O[C@H](C)C[C@H](N(C)C)[C@H]2OC(C)=O)[C@@]2(C)CC(C)=C(O2)[C@H](C)[C@@H](OC(=O)C(C)C)[C@]1(C)OC(=O)C(C)C,16,16,16,16,32,16,16,> 128,32,16,32,,16
CC[C@H]1OC(=O)[C@H](C)[C@@H](OCc2cn(-c3cccc4ccccc34)nn2)[C@H](C)[C@@H](O[C@@H]2O[C@H](C)C[C@H](N(C)C)[C@H]2O)[C@@]2(C)CC(C)=C(O2)[C@H](C)[C@@H](OC(=O)C(C)C)[C@]1(C)OC(=O)C(C)C,16,16,16,16,16,64,32,> 128,64,32,32,32,16
CC[C@H]1OC(=O)[C@H](C)[C@@H](OCc2cn(CCO)nn2)[C@H](C)[C@@H](O[C@@H]2O[C@H](C)C[C@H](N(C)C)[C@H]2O)[C@@]2(C)CC(C)=C(O2)[C@H](C)[C@@H](OC(=O)C(C)C)[C@]1(C)OC(=O)C(C)C,64,64,128,64,64,> 128,64,> 128,128,> 128,128,128,64
CC[C@H]1OC(=O)[C@H](C)[C@@H](O)[C@H](C)[C@@H](O[C@@H]2O[C@H](C)C[C@H](N(C)C)[C@H]2OC(C)=O)[C@@]2(C)CC(C)=C(O2)[C@H](C)[C@@H](OC(=O)C(C)C)[C@]1(C)OC(=O)C(C)C,64,64,64,64,64,> 128,64,> 128,128,128,64,64,64
CC[C@H]1OC(=O)[C@H](C)[C@@H](OCc2cn(CC(=O)O)nn2)[C@H](C)[C@@H](O[C@@H]2O[C@H](C)C[C@H](N(C)C)[C@H]2O)[C@@]2(C)CC(C)=C(O2)[C@H](C)[C@@H](OC(=O)C(C)C)[C@]1(C)OC(=O)C(C)C,,,> 128,> 128,> 128,> 128,> 128,> 128,> 128,> 128,> 128,,
CC[C@H]1OC(=O)[C@H](C)[C@@H](OCc2cn(-c3cnc4ccccc4c3)nn2)[C@H](C)[C@@H](O[C@@H]2O[C@H](C)C[C@H](N(C)C)[C@H]2O)[C@@]2(C)CC(C)=C(O2)[C@H](C)[C@@H](OC(=O)C(C)C)[C@]1(C)OC(=O)C(C)C,16,8,16,8,16,32,16,> 128,32,32,32,16,16
CC[C@H]1OC(=O)[C@H](C)[C@@H](OCc2cn(Cc3ccccc3)nn2)[C@H](C)[C@@H](O[C@@H]2O[C@H](C)C[C@H](N(C)C)[C@H]2O)[C@@]2(C)CC(C)=C(O2)[C@H](C)[C@@H](OC(=O)C(C)C)[C@]1(C)OC(=O)C(C)C,8,8,16,8,16,32,16,> 128,16,16,16,16,16
CC[C@H]1OC(=O)[C@H](C)[C@@H](O[C@H]2C[C@@](C)(OC)[C@@H](O)[C@H](C)O2)[C@H](C)[C@@H](O[C@@H]2O[C@H](C)C[C@H](N(C)C)[C@H]2O)[C@](C)(O)C[C@@H](C)C(=O)[C@H](C)[C@@H](O)[C@]1(C)O [ERYTHROMYCIN],,,> 256,> 256,> 256,≤ 0.5,≤ 0.5,> 256,64,> 256,> 256,> 128,
